Measurements reported in PMC12291851, “Hydrogen Sulfide (H2S)-Donating Formyl Peptide Receptor 2 (FPR2) Agonists: Design, Synthesis, and Biological Evaluation in Primary Mouse Microglia Culture” (Antioxidants, 2025).

Key:
FPR2 = molecular target: T1, FPR2 (Homo sapiens, UniProt P25090); assay: cell-based
T1 sequence (P25090 1-351): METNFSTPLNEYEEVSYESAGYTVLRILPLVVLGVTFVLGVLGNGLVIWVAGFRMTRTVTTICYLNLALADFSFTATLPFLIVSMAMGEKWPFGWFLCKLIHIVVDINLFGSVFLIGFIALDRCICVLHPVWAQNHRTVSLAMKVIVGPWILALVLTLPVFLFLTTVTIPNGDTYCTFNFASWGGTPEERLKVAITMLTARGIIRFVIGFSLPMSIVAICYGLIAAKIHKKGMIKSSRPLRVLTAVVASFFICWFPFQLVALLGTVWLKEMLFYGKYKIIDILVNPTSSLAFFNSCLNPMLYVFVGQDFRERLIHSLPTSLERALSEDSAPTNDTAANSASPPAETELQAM

IL-18 = IL-18 ELISA in medium of microglial cultures; format: cell-based, mouse; conditions: 1 μM pretreatment 1 h, then LPS 0.1 μg/mL 24 h
Experimental: Primary microglial cell cultures were derived from the cortices of 1–2-day-old mouse pups (1pup/1 brain/1 flask). After decapitation, the brains were extracted and immediately placed in cold Hanks’ Balanced Salt Solution (HBSS, Gibco, New York, NY, USA) on ice. The brains were washed at least three times with 7 mL of HBSS and then transferred to 10 mL of fresh culture media consisting of Dulbecco’s Modified Eagle Medium (DMEM) with GlutaMax and high glucose (4.5 g/L) (Gibco, New York, NY, USA) on ice. The tissue was minced and incubated in HBSS containing glucose, bovine serum albumin (BSA; Sigma-Aldrich, St. Louis, MO, USA), and HEPES (Gibco, New York, NY, USA) with 0.025% trypsin at 37 °C for 20 min. […] The purity of microglial cell cultures was assessed as we have shown previously. […]
To assess the effect of test compounds on IL-18, IL-6, and IL-10 levels, the medium of microglial cell cultures was collected 24 h after LPS treatment. The protein levels of the cytokines IL-18 (Mouse interleukin 18 ELISA kit), IL-6 (Mouse interleukin 6 ELISA kit), and IL-10 (Mouse interleukin 10 ELISA kit; all obtained from FineTest, Wuhan, China) were measured using commercially available enzyme-linked immunosorbent assay kits according to the manufacturer’s instructions. […]

| SMILES | EC50 (FPR2) [nM] | LPS-induced increase of IL-18 level (IL-18) |
| --- | --- | --- |
| N#Cc1ccc(C[C@H](NC(=O)Nc2ccc(F)cc2)C(=S)N2CCc3ccccc32)cc1 [7b, (S)-1-[3-(4-Cyanophenyl)-1-(indolin-1-yl)-1-thioxopropan-2-yl]-3-(4-fluorophenyl)urea] | 600 ± 200 | able to counterbalance the LPS-induced increase |
| N#Cc1ccc(C[C@H](NC(=O)Nc2ccc(Br)cc2)C(=S)N2CCc3ccccc32)cc1 [8b, (S)-1-(4-Bromophenyl)-3-[3-(4-cyanophenyl)-1-(indolin-1-yl)-1-thioxopropan-2-yl]urea] | 40 ± 20 | able to counterbalance the LPS-induced increase |
